The structures appear in SMILES notation. Where only a bound is given, the exact number is not on record here.

Usually IC50 stands for the concentration needed to halve the response being measured. The low end stands for greater potency in that assay, the high end for weaker potency in that assay.

human IDO1, sequence (P14902 whole entry): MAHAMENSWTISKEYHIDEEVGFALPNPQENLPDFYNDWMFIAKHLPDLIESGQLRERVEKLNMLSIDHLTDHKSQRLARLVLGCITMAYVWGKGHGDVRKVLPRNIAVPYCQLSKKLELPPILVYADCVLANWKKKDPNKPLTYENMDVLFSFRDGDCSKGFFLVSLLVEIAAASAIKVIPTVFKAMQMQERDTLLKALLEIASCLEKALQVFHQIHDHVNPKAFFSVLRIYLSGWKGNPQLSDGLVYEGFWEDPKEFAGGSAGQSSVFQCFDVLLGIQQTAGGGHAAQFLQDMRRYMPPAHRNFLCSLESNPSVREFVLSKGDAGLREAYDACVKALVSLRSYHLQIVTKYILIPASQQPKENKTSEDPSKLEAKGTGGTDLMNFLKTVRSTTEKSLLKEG

This assay addresses human IDO1 (Homo sapiens, UniProt P14902). Put plainly: Assessment of human IDO-1 inhibitory activity in Hela cells (Interferon-gamma stimulated HeLa cells, Ehrlich reagent, absorbance 490 nm). Format: cell-based. More on the design: endogenous in cells; host or cells: HeLa cells stimulated with interferon-gamma. To be noted: Hela Human IDO-1 cellular assay. The method, then: Exemplary compounds were tested for inhibition of IDO activity.
Assessment of Human IDO-1 Inhibitory Activity in Hela Cells
HeLa cells were seeded at 20,000 cells per 30 μL per well with RPMI/phenol red free media containing 10% FBS in a 384-well tissue culture plate (black with clear bottoms). 50 nL of compound was added to cells and incubated at 37° C. for one hour. 20 μL of the recombinant human Interferon-gamma (R&D System, Cat. #285-IF, at final concentration of 10 ng/ml) or recombinant murine Interferon-gamma (PEPROTECH® Inc., Cat. #315-05, final concentration of 5 ng/ml) was added to activate IDO signaling. The cells were incubated for 18 hours in 37° C. incubator with 5% CO2.
Compound treatment was stopped by adding 5 μl trichloroacetic acid to a final concentration of 3%. Subsequently, the cell plate was further incubated at 50° C. for 30 minute. An equal volume supernatant (20 μL) and 2% (w/v) Ehrlich reagent (4-dimethylaminobenzaldehyde) in glacial acetic acid were mixed in a new clear bottom 384-well plate. This plate was incubated at room temperature for 30 minutes. Absorbance at 490 nm was measured on Envision plate reader.
Compound IC50 values were calculated using counts from unstimulated (no INF-gamma treatment) wells as 100% inhibition. INF-gamma treatment without compound treatment as 0% inhibition.
On to `CCOc1ncc(Nc2cc(C(CC)CC(=O)O)ccc2N(CC)C2CCOC2)cn1` (single isomer, unassigned) [Example 945 D1, 3-(3-((2-Ethoxypyrimidin-5-yl)amino)-4-(ethyl(tetrahydrofuran-3-yl)amino)phenyl)pentanoic acid], for which the half-maximal inhibitory concentration (IC50) was less than 0.05 µM. Regarding `CCOc1ncc(Nc2cc([C@H](CC)Cc3ncno3)ccc2N(CC)C2CCOCC2)cn1` [Example 1337, (R)-4-(1-(1,2,4-Oxadiazol-5-yl)butan-2-yl)-N2-(2-ethoxypyrimidin-5-yl)-N1-ethyl-N1-(tetrahydro-2H-pyran-4-yl)benzene-1,2-diamine], the IC50 was less than 0.05 µM.

`CCC1COCCN1c1ccc([C@H](COC)CC(=O)O)cc1Nc1ccc(C#N)c(F)c1` (single isomer, unassigned) [Example 1288] came in with a 50% inhibitory concentration (IC50) greater than 0.05 µM. Under `CCC(CC(=O)O)c1ccc(N2CC(O)(c3ccc(F)cc3)C2)c(Nc2ccc(Cl)cc2)c1` (single isomer, unassigned) [Example 1253 E2, 3-(3-((4-Chlorophenyl)amino)-4-(3-(4-fluorophenyl)-3-hydroxyazetidin-1-yl)phenyl)pentanoic acid] stands less than 0.005 µM; under `CCN(c1ccc([C@@H](COC)CC(=O)O)cc1Nc1ccc(C(N)=O)cc1)C1CCOCC1` (single isomer, unassigned) [Example 385], greater than 0.05 µM; under `CCC1COCCN1c1ccc([C@@H](COC)CC(=O)O)cc1Nc1ccc(F)cn1` (single isomer, unassigned) [Example 1302], greater than 0.05 µM. Under `CCOc1ncc(Nc2cc([C@H](CC)CC(O)C(F)(F)F)ccc2N(CC)C2CCOCC2)cn1` (single isomer, unassigned) [Example 1336 D1] stands less than 0.05 µM; under `CCCN(c1ccc([C@@H](COC)CC(=O)O)cc1Nc1cnc(OCC)nc1)C1CCOCC1` (single isomer, unassigned) [Example 559], less than 0.05 µM; under `COCCN(c1ccc(C(COC)CC(=O)O)cc1Nc1ccc(C#N)cc1)C1CCOCC1` (single isomer, unassigned) [Example 257, 3-(3-((4-cyanophenyl)amino)-4-((2-methoxyethyl)(tetrahydro-2H-pyran-4-yl)amino)phenyl)-4-methoxybutanoic acid], less than 0.05 µM. Under `CCN(c1ccc(C(COC)CC(=O)O)cc1Nc1ccc(Cl)cc1)C1CCS(=O)(=O)CC1` (single isomer, unassigned) [Example 170, 3-(3-((4-chlorophenyl)amino)-4-((1,1-dioxidotetrahydro-2H-thiopyran-4-yl)(ethyl)amino)phenyl)-4-methoxybutanoic acid] stands less than 0.005 µM; under `CCC1COCCN1c1ccc([C@H](COC)CC(=O)O)cc1Nc1ccc(C#N)cc1` (single isomer, unassigned) [Example 1287], greater than 0.05 µM; under `CC[C@H](CC(=O)O)c1ccc(N(CC)C2CCOCC2)c(Nc2cnc(OC)cn2)c1` (single isomer, unassigned) [Example 507], less than 0.005 µM. In turn, `C[C@@H]1CN(c2ccc(C(CC(=O)O)C3CC3)cc2Nc2ccc(C#N)cc2)C[C@H](C)O1` (single isomer, unassigned) [Example 243] showed an IC50 of less than 0.05 µM. Under `CCCN(c1ccc([C@H](CC)CC(=O)O)cc1Nc1ccc2c(c1)OC(F)(F)O2)C1CCOCC1` (single isomer, unassigned) [Example 550] stands less than 0.005 µM; under `CCN(c1c(F)cc(C(COC)CC(=O)O)cc1Nc1ccc(C#N)cc1)C1CCOCC1` (single isomer, unassigned) [Example 916, 3-(3-((4-Cyanophenyl)amino)-4-(ethyl(tetrahydro-2H-pyran-4-yl)amino)-5-fluorophenyl)-4-methoxybutanoic acid], less than 0.005 µM; under `CCOc1cnc(Nc2cc(C(C)CC(=O)O)ccc2N(CC)C2CCOCC2)cn1` (single isomer, unassigned) [Example 630, 3-(3-((5-ethoxypyrazin-2-yl)amino)-4-(ethyl (tetrahydro-2H-pyran-4-yl)amino)phenyl)butanoic acid], less than 0.05 µM.

For the origin of these results see patent publication US9790169B2, “IDO inhibitors” (BRISTOL-MYERS SQUIBB COMPANY, priority 2015, dated 2017).
